Test results: patent US12435060B2, “Acylamino bridged heterocyclic compound, and composition and application thereof” (BEIJING SCITECH-MQ PHARMACEUTICALS LIMITED, priority 2019, dated 2025)

Test system: HT29 cells
Assay: Inhibition of cell necrosis (CCK8 method), induced programmed necrosis of HT29 cells
Type: cell-based
Conditions: Homo sapiens, HT-29; rescue from necrosis induced by TNF-α 20 ng/mL, AT-406 1 μM, Z-VAD-FMK 20 μM; 16-20 hours; CCK-8, OD 450 nm
How it was run: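 HT29 cells in McCOY's 5A with 10% FBS were pre-treated for 30 min with compound (9 fourfold steps, 25000 to 0.38 nM final, 0.25% DMSO). Necrosis was then induced with TNF-α 20 ng/mL, AT-406 1 μM and Z-VAD-FMK 20 μM for 16-20 h. Viability was read by CCK-8 OD450, normalized between uninduced and induced wells, and IC50 was curve-fitted.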

Structure (SMILES) | IC50
COCCOc1ccc(C(F)(F)F)c(-c2ccnc(NC(=O)c3nnc(Cc4ccccc4F)[nH]3)c2)c1 [Example 280, 5-(2-fluorobenzyl)-N-(4-(5-(2-methoxyethoxy)-2-(trifluoromethyl)phenyl)pyridin-2-yl)-4H-1,2,4-triazole-3-carboxamide] | ≤ 100 nM
CC(C)(O)CCCOc1ccc(C(F)(F)F)c(-c2ccnc(NC(=O)c3nnc(Cc4ccccc4)[nH]3)c2)c1 [Example 194, 5-benzyl-N-(4-(5-((4-hydroxy-4-methylpentyl)oxy)-2-(trifluoromethyl)phenyl)pyridin-2-yl)-4H-1,2,4-triazole-3-carboxamide] | ≤ 100 nM
Cc1ccc(OCCCC(C)(C)O)cc1-c1cc(NC(=O)c2nnc(Cc3cccc(Cl)c3F)[nH]2)ncn1 [Example 438, 5-(3-chloro-2-fluorobenzyl)-N-(6-(5-((4-hydroxy-4-methylpentyl)oxy)-2-methylphenyl)pyrimidin-4-yl)-4H-1,2,4-triazole-3-carboxamide] | 100 to 1000 nM
Cc1ccc(OCCC(C)(C)C)cc1-c1ccnc(NC(=O)c2nnc(Cc3ccccc3)[nH]2)c1 [Example 115, 5-benzyl-N-(4-(5-(3,3-dimethylbutoxy)-2-methylphenyl)pyridin-2-yl)-4H-1,2,4-triazole-3-carboxamide] | 100 to 1000 nM
CCC(O)(CC)CCCOc1ccc(Cl)c(-c2cc(NC(=O)c3nnc(Cc4ccccc4F)[nH]3)ncc2Cl)c1 [Example 417, N-(5-chloro-4-(2-chloro-5-((4-ethyl-4-hydroxyhexyl)oxy)phenyl)pyridin-2-yl)-5-(2-fluorobenzyl)-4H-1,2,4-triazole-3-carboxamide] | 100 to 1000 nM
O=C(Nc1cc(-c2ccccc2Cl)ccn1)c1nnc(Cc2ccccc2)[nH]1 [Example 7, 5-benzyl-N-(4-(2-chlorophenyl)pyridin-2-yl)-4H-1,2,4-triazole-3-carboxamide] | 100 to 1000 nM
CC(C)(O)CCCOc1ccc(Cl)c(-c2ccnc(NC(=O)c3nnc(Cc4ccc(F)c(Cl)c4)[nH]3)c2)c1 [Example 342, 5-(3-chloro-4-fluorobenzyl)-N-(4-(2-chloro-5-((4-hydroxy-4-methylpentyl)oxy)phenyl)pyridin-2-yl)-4H-1,2,4-triazole-3-carboxamide] | 100 to 1000 nM
CC(C)(O)CCCOc1ccc(C#N)c(-c2ccnc(NC(=O)c3nnc(Cc4ccccc4)[nH]3)c2)c1 [Example 193, 5-benzyl-N-(4-(2-cyano-5-((4-hydroxy-4-methylpentyl)oxy)phenyl)pyridin-2-yl)-4H-1,2,4-triazole-3-carboxamide] | ≤ 100 nM
Cc1ccc(OCCC2CCOCC2)cc1-c1cc(NC(=O)c2nnc(CC3CCCCC3)[nH]2)ncn1 [Example 448, 5-(cyclohexylmethyl)-N-(6-(2-methyl-5-(2-(tetrahydro-2H-pyran-4-yl)ethoxy)phenyl)pyrimidin-4-yl)-4H-1,2,4-triazole-3-carboxamide] | ≤ 100 nM
Cc1ccc(OCCCC(C)(C)O)cc1-c1ccnc(NC(=O)c2nnc(CC3CCOCC3)[nH]2)c1 [Example 177, N-(4-(5-((4-hydroxy-4-methylpentyl)oxy)-2-methylphenyl)pyridin-2-yl)-5-((tetrahydro-2H-pyran-4-yl)methyl)-4H-1,2,4-triazole-3-carboxamide] | ≤ 100 nM
Cc1ccc(OCCN2CCCCC2)cc1-c1ccnc(NC(=O)c2nnc(Cc3ccccc3F)[nH]2)c1 [Example 229, 5-(2-fluorobenzyl)-N-(4-(2-methyl-5-(2-(piperidin-1-yl)ethoxy)phenyl)pyridin-2-yl)-4H-1,2,4-triazole-3-carboxamide] | 100 to 1000 nM
O=C(Nc1cc(-c2cc(OCC3CCOCC3)ccc2Cl)ncn1)c1nnc(Cc2ccccc2)[nH]1 [Example 466, 5-benzyl-N-(6-(2-chloro-5-((tetrahydro-2H-pyran-4-yl)methoxy)phenyl)pyrimidin-4-yl)-4H-1,2,4-triazole-3-carboxamide] | ≤ 100 nM
Cc1ccc(OCCCOC(C)C)cc1-c1ccnc(NC(=O)c2nnc(Cc3ccccc3)[nH]2)c1 [Example 83, 5-benzyl-N-(4-(5-(3-isopropoxypropoxy)-2-methylphenyl)pyridin-2-yl)-4H-1,2,4-triazole-3-carboxamide] | ≤ 100 nM
CC(C)(O)CCCOc1ccc(Cl)c(-c2ccnc(NC(=O)c3nnc(Cc4cccc(C(F)(F)F)c4F)[nH]3)c2)c1 [Example 346, N-(4-(2-chloro-5-((4-hydroxy-4-methylpentyl)oxy)phenyl)pyridin-2-yl)-5-(2-fluoro-3-(trifluoromethyl)benzyl)-4H-1,2,4-triazole-3-carboxamide] | 100 to 1000 nM
CC(C)(C)OCCOc1ccc(Cl)c(-c2ccnc(NC(=O)c3nnc(CC4CCCC4)[nH]3)c2)c1 [Example 393, N-(4-(5-(2-(tert-butoxy)ethoxy)-2-chlorophenyl)pyridin-2-yl)-5-(cyclopentylmethyl)-4H-1,2,4-triazole-3-carboxamide] | ≤ 100 nM
Cc1ccc(OCCCC(C)(C)O)cc1-c1cc(NC(=O)c2nnc(CC3CCCCC3)[nH]2)ncc1F [Example 493, 5-(cyclohexylmethyl)-N-(5-fluoro-4-(5-((4-hydroxy-4-methylpentyl)oxy)-2-methylphenyl)pyridin-2-yl)-4H-1,2,4-triazole-3-carboxamide] | ≤ 100 nM

Structure (SMILES) | IC50
COc1ncccc1-c1ccnc(NC(=O)c2nnc(Cc3ccccc3)[nH]2)c1 [Example 21, 5-benzyl-N-(2-methoxy-[3,4′-bipyridin]-2′-yl)-4H-1,2,4-triazole-3-carboxamide] | 1000 to 10000 nM
C=CCCCOc1ccc(C)c(-c2ccnc(NC(=O)c3nnc(Cc4ccccc4)[nH]3)c2)c1 [Example 149, 5-benzyl-N-(4-(2-methyl-5-(pent-4-en-1-yloxy)phenyl)pyridin-2-yl)-4H-1,2,4-triazole-3-carboxamide] | ≤ 100 nM
Cc1ccc(OCCCC(C)(C)O)cc1-c1ccnc(NC(=O)c2nnc(Cc3cc(F)cc(F)c3)[nH]2)c1 [Example 200, 5-(3,5-difluorobenzyl)-N-(4-(5-((4-hydroxy-4-methylpentyl)oxy)-2-methylphenyl)pyridin-2-yl)-4H-1,2,4-triazole-3-carboxamide] | ≤ 100 nM
CCC(O)(CC)CCCOc1ccc(F)c(-c2ccnc(NC(=O)c3nnc(Cc4ccccc4F)[nH]3)c2)c1 [Example 314, N-(4-(5-((4-ethyl-4-hydroxyhexyl)oxy)-2-fluorophenyl)pyridin-2-yl)-5-(2-fluorobenzyl)-4H-1,2,4-triazole-3-carboxamide] | 100 to 1000 nM
CC(C)OCCOc1ccc(Cl)c(-c2ccnc(NC(=O)c3nnc(CC4CCCCC4)[nH]3)c2)c1 [Example 390, N-(4-(2-chloro-5-(2-isopropoxyethoxy)phenyl)pyridin-2-yl)-5-(cyclohexylmethyl)-4H-1,2,4-triazole-3-carboxamide] | ≤ 100 nM
CC(=O)c1ccc(-c2ccnc(NC(=O)c3nnc(Cc4ccccc4)[nH]3)c2)c(C)c1 [Example 162, N-(4-(4-acetyl-2-methylphenyl)pyridin-2-yl)-5-benzyl-4H-1,2,4-triazole-3-carboxamide] | 100 to 1000 nM
O=C(Nc1cc(-c2cc(OCC3CCOCC3)ccc2C(F)(F)F)ccn1)c1nnc(Cc2ccccc2F)[nH]1 [Example 300, 5-(2-fluorobenzyl)-N-(4-(5-((tetrahydro-2H-pyran-4-yl)methoxy)-2-(trifluoromethyl)phenyl)pyridin-2-yl)-4H-1,2,4-triazole-3-carboxamide] | ≤ 100 nM
COC(=O)CCc1ccc(C)c(-c2ccnc(NC(=O)c3nnc(CC4CCCC4)[nH]3)c2)c1 [Example 481, Methyl 3-(3-(2-(5-(cyclopentylmethyl)-4H-1,2,4-triazol-3-carboxamido)pyridin-4-yl)-4-methylphenyl)propionate] | 100 to 1000 nM
Cc1ccc(OCCCC(C)(C)O)cc1-c1ccnc(NC(=O)c2nnc(Cc3ccccc3F)[nH]2)c1 [Example 183, 5-(2-fluorobenzyl)-N-(4-(5-((4-hydroxy-4-methylpentyl)oxy)-2-methylphenyl)pyridin-2-yl)-4H-1,2,4-triazole-3-carboxamide] | ≤ 100 nM
CCC(O)(CC)CCCOc1ccc(C)c(-c2ccnc(NC(=O)c3nnc(CC4CCCC4)[nH]3)c2)c1 [Example 166, 5-(cyclopentylmethyl)-N-(4-(5-((4-ethyl-4-hydroxyhexyl)oxy)-2-methylphenyl)pyridin-2-yl)-4H-1,2,4-triazole-3-carboxamide] | ≤ 100 nM
COCCCOc1ccc(Cl)c(-c2ccnc(NC(=O)c3nnc(CC4CCCCC4)[nH]3)c2)c1 [Example 398, N-(4-(2-chloro-5-(3-methoxypropoxy)phenyl)pyridin-2-yl)-5-(cyclohexylmethyl)-4H-1,2,4-triazole-3-carboxamide] | ≤ 100 nM
COCCOc1ccc(Cl)c(-c2ccnc(NC(=O)c3nnc(CC4CCCC4)[nH]3)c2)c1 [Example 381, N-(4-(2-chloro-5-(2-methoxyethoxy)phenyl)pyridin-2-yl)-5-(cyclopentylmethyl)-4H-1,2,4-triazole-3-carboxamide] | ≤ 100 nM
CC(C)(O)CCCCOc1ccc(F)c(-c2ccnc(NC(=O)c3nnc(Cc4ccccc4F)[nH]3)c2)c1 [Example 500, N-(4-(2-fluoro-5-((5-hydroxyl-5-methylhexyl)oxy)phenyl)pyridin-2-yl)-5-(2-fluorobenzyl)-4H-1,2,4-triazole-3-carboxamide] | 100 to 1000 nM
O=C(Nc1cc(-c2cc(OCC3CCOCC3)ccc2Cl)ccn1)c1nnc(CC2CCCC2)[nH]1 [Example 401, N-(4-(2-chloro-5-((tetrahydro-2H-pyran-4-yl)methoxy)phenyl)pyridin-2-yl)-5-(cyclopentylmethyl)-4H-1,2,4-triazole-3-carboxamide] | ≤ 100 nM
Cc1ccc(OCCOC(C)(C)C)cc1-c1ccnc(NC(=O)c2nnc(Cc3ccccc3)[nH]2)c1 [Example 64, 5-benzyl-N-(4-(5-(2-(tert-butoxy)ethoxy)-2-methylphenyl)pyridin-2-yl)-4H-1,2,4-triazole-3-carboxamide] | ≤ 100 nM
